From ChEMBL document CHEMBL5344477, “Discovery of benzoheterocyclic-substituted amide derivatives as apoptosis signal-regulating kinase 1 (ASK1) inhibitors” (RSC Med Chem, 2024)

Tests used:
[1] = Half life in Sprague-Dawley rat at 5 mg/kg, po measured upto 24 hrs by LC-MS/MS analysis; type: ADME, organism-based; conditions: in vivo
[2] = Cmax in Sprague-Dawley rat at 1 mg/kg, iv measured upto 24 hrs by LC-MS/MS analysis; type: ADME, organism-based; parameters: dose 1 mg/kg, time < 24 hrs, route iv; conditions: in vivo
[3] = Volume of distribution at steady state in Sprague-Dawley rat at 1 mg/kg, iv measured upto 24 hrs by LC-MS/MS analysis; type: ADME, organism-based; conditions: in vivo, read-out: Vdss
[4] = Metabolic stability in human liver microsomes assessed as clearance at 1 uM measured upto 90 mins by LC-MS/MS analysis; type: ADME, Microsome; conditions: read-out: CLH
[5] = Metabolic stability in rat liver microsomes assessed as clearance at 1 uM measured upto 90 mins by LC-MS/MS analysis; type: ADME, Microsome; conditions: read-out: CLH
[6] = AUClast in Sprague-Dawley rat at 1 mg/kg, iv measured upto 24 hrs by LC-MS/MS analysis; type: ADME, organism-based; parameters: dose 1 mg/kg, time < 24 hrs, route iv; conditions: in vivo
[7] = Oral bioavailability in Sprague-Dawley rat at 5 mg/kg measured upto 24 hrs by LC-MS/MS analysis; type: ADME, organism-based; conditions: in vivo
[8] = AUClast in Sprague-Dawley rat at 5 mg/kg, po measured upto 24 hrs by LC-MS/MS analysis; type: ADME, organism-based; parameters: dose 5 mg/kg, time < 24 hrs, route po; conditions: in vivo
[9] = Cmax in Sprague-Dawley rat at 5 mg/kg, po measured upto 24 hrs by LC-MS/MS analysis; type: ADME, organism-based; parameters: dose 5 mg/kg, time < 24 hrs, route po; conditions: in vivo
[10] = Metabolic stability in rat liver microsomes assessed as half life at 1 uM measured upto 90 mins by LC-MS/MS analysis; type: ADME, Microsome
[11] = Metabolic stability in human liver microsomes assessed as half life at 1 uM measured upto 90 mins by LC-MS/MS analysis; type: ADME, Microsome
[12] = Apparent […] clearance in Sprague-Dawley rat at 1 mg/kg, iv measured upto 24 hrs by LC-MS/MS analysis; type: ADME, organism-based; conditions: in vivo
[13] = Half life in Sprague-Dawley rat at 1 mg/kg, iv measured upto 24 hrs by LC-MS/MS analysis; type: ADME, organism-based; conditions: in vivo

Row | half-life [1] | Cmax [2] | Vd [3] | CLint scaled at 1 µM [4] | CLint scaled at 1 µM [5] | AUC(0-t) at 24 h [6] | bioavailability [7] | AUC(0-t) at 24 h [8] | Cmax [9] | half-life at 1 µM [10] | half-life at 1 µM [11] | CL/F [12] | half-life [13] | SMILES
1 | 1.13 h | 0.594 µg/mL | 1.32 L/kg | 0.438 L/h/kg | 2.06 L/h/kg | 0.668 µg·h/mL | 80.7% | 2.66 µg·h/mL | 0.964 µg/mL | 1.2 h | 3.95 h | 1.49 L/h/kg | 0.86 h | CC(C)n1cnnc1-c1cccc(NC(=O)c2cc3c(cc2F)CCC(=O)N3C)n1
2 | 1.79 h | 0.274 µg/mL | 3.41 L/kg | 0.102 L/h/kg | 0.45 L/h/kg | 0.222 µg·h/mL | 15.1% | 0.157 µg·h/mL | 0.058 µg/mL | 5.49 h | 17.3 h | 4.47 L/h/kg | 0.68 h | CC(C)n1cnnc1-c1cccc(NC(=O)c2cc3c(cc2F)CCC(=O)N3)c1
3 | 2.03 h | 0.945 µg/mL | 1.07 L/kg |  |  | 1.2 µg·h/mL | 75.9% | 4.56 µg·h/mL | 1.42 µg/mL |  |  | 0.83 L/h/kg | 0.99 h | CC(C)n1cnnc1-c1cccc(NC(=O)c2cc3c(cc2F)C(C)(C)CC(=O)N3)n1
4 | 0.97 h | 0.812 µg/mL | 1.08 L/kg | 1.55 L/h/kg | 14.9 L/h/kg | 0.431 µg·h/mL | 40.2% | 0.865 µg·h/mL | 0.635 µg/mL | 0.167 h | 1.12 h | 2.31 L/h/kg | 0.55 h | O=C(Nc1cccc(-c2nncn2CC2CC2)c1)c1cc2c(cc1F)OCc1cncn1-2
5 |  |  |  | 1.3 L/h/kg | 10.8 L/h/kg |  |  |  |  | 0.228 h | 1.34 h |  |  | O=C(Nc1cccc(-c2nncn2C2CC2)n1)c1cc2c(cc1F)OCc1cncn1-2
6 | 1.97 h | 0.799 µg/mL | 1.14 L/kg | 0.666 L/h/kg | 0.792 L/h/kg | 1.34 µg·h/mL | 121% | 7.53 µg·h/mL | 1.85 µg/mL | 3.15 h | 2.6 h | 0.73 L/h/kg | 1.22 h | CN1C(=O)CCCc2cc(F)c(C(=O)Nc3cccc(-c4nncn4C4CC4)n3)cc21
7 | 1.86 h | 1.04 µg/mL | 0.85 L/kg | 0.18 L/h/kg | 0.822 L/h/kg | 1.63 µg·h/mL | 56.4% | 4.29 µg·h/mL | 1.26 µg/mL | 3.02 h | 9.74 h | 0.61 L/h/kg | 1.11 h | CC(C)n1cnnc1-c1cccc(NC(=O)c2cc3c(cc2F)OCC(=O)N3)n1
8 |  | 0.262 µg/mL | 3.01 L/kg | 0.108 L/h/kg | 0.57 L/h/kg | 0.108 µg·h/mL |  |  |  | 4.37 h | 16.3 h | 9.24 L/h/kg | 0.28 h | CC(CO)n1cnnc1-c1cccc(NC(=O)c2cc3c(cc2F)CCCC(=O)N3)n1 (stereo not given)
9 |  |  |  | 4.96 L/h/kg | 13.8 L/h/kg |  |  |  |  | 0.18 h | 0.35 h |  |  | O=C(Nc1cccc(-c2nncn2C2CCCC2)n1)c1cc2c(cc1F)OCc1cncn1-2
10 | 2.36 h | 1.08 µg/mL | 0.97 L/kg | 5.66 L/h/kg | 4.25 L/h/kg | 0.919 µg·h/mL | 77.7% | 3.39 µg·h/mL | 1.49 µg/mL | 0.585 h | 0.307 h | 1.09 L/h/kg | 0.86 h | O=C1COc2cc(F)c(C(=O)Nc3cccc(-c4nncn4C4CCCC4)n3)cc2N1
11 | 1.13 h | 0.235 µg/mL | 2.61 L/kg | 3.8 L/h/kg | 22.7 L/h/kg | 0.329 µg·h/mL | 57.4% | 0.939 µg·h/mL | 0.445 µg/mL | 0.11 h | 0.458 h | 3.02 L/h/kg | 0.63 h | CC(C)n1cnnc1-c1cccc(NC(=O)c2cc3c(cc2F)OCc2cncn2-3)c1
12 | 5.02 h | 0.418 µg/mL | 1.82 L/kg | 0.642 L/h/kg | 1.52 L/h/kg | 0.789 µg·h/mL | 89.1% | 3.18 µg·h/mL | 0.55 µg/mL | 1.64 h | 2.71 h | 1.25 L/h/kg | 1.12 h | CC(C)n1cnnc1-c1cccc(NC(=O)c2cc3c(cc2F)C(C)(C)CC(=O)N3C)n1
13 | 2.37 h | 0.597 µg/mL | 1.56 L/kg |  |  | 0.381 µg·h/mL | 116% | 2.21 µg·h/mL | 0.582 µg/mL |  |  | 2.62 L/h/kg | 0.73 h | CC(C)n1cnnc1-c1cccc(NC(=O)c2cc3c(cc2F)CCCC(=O)N3C)n1
14 | 3.82 h | 1.22 µg/mL | 0.7 L/kg | 0.144 L/h/kg | 0.282 L/h/kg | 1.17 µg·h/mL | 47% | 2.72 µg·h/mL | 0.829 µg/mL | 8.87 h | 11.9 h | 0.85 L/h/kg | 0.71 h | O=C1CCCc2cc(F)c(C(=O)Nc3cccc(-c4nncn4C4CC4)n3)cc2N1
15 |  |  |  | 1.9 L/h/kg | 8.39 L/h/kg |  |  |  |  | 0.297 h | 0.917 h |  |  | CC(C)N1C(=O)COc2cc(F)c(C(=O)Nc3cccc(-c4nncn4C(C)C)n3)cc21
16 | 2.95 h | 1.58 µg/mL | 0.68 L/kg | 0.684 L/h/kg | 0.282 L/h/kg | 5.07 µg·h/mL | 47.9% | 12.1 µg·h/mL | 3 µg/mL | 8.74 h | 2.55 h | 0.2 L/h/kg | 3.15 h | O=C1COc2cc(F)c(C(=O)Nc3cccc(-c4nncn4-c4ccccc4)n3)cc2N1
17 |  |  |  | 1.58 L/h/kg | 9.61 L/h/kg |  |  |  |  | 0.258 h | 1.1 h |  |  | O=C(Nc1cccc(-c2nncn2-c2ccccc2)n1)c1cc2c(cc1F)OCc1cncn1-2
18 | 2.11 h | 0.779 µg/mL | 1.49 L/kg | 0.306 L/h/kg | 1.01 L/h/kg | 2.22 µg·h/mL | 97.9% | 10.9 µg·h/mL | 1.83 µg/mL | 2.46 h | 5.67 h | 0.45 L/h/kg | 1.62 h | CC(C)n1cnnc1-c1cccc(NC(=O)c2cc3c(cc2F)OCC(=O)N3C)n1
19 | 1.46 h | 2.08 µg/mL | 0.56 L/kg | 0.348 L/h/kg | 0.798 L/h/kg | 1.26 µg·h/mL | 8.8% | 0.534 µg·h/mL | 0.334 µg/mL | 3.12 h | 4.98 h | 0.79 L/h/kg | 0.71 h | CC(C)n1cnnc1-c1cccc(NC(=O)c2cc3c(cc2F)CCC(=O)N3)n1
20 | 1.55 h | 0.514 µg/mL | 1.25 L/kg | 0.588 L/h/kg | 1.17 L/h/kg | 0.229 µg·h/mL | 2.1% | 0.021 µg·h/mL | 0.027 µg/mL | 2.12 h | 2.96 h | 4.35 L/h/kg | 0.22 h | CC(CO)n1cnnc1-c1cccc(NC(=O)c2cc3c(cc2F)OCC(=O)N3)n1 (stereo not given)
21 | 1.04 h | 0.804 µg/mL | 1.13 L/kg | 1.45 L/h/kg | 9.06 L/h/kg | 0.706 µg·h/mL |  | 7.82 µg·h/mL | 3.52 µg/mL | 0.275 h | 1.2 h | 1.42 L/h/kg | 0.75 h | O=C(Nc1cccc(-c2nncn2CC2CC2)n1)c1cc2c(cc1F)OCc1cncn1-2
22 | 1.44 h | 0.758 µg/mL | 1.44 L/kg | 0.468 L/h/kg | 0.624 L/h/kg | 0.449 µg·h/mL | 33.2% | 0.712 µg·h/mL | 0.341 µg/mL | 3.97 h | 3.72 h | 2.21 L/h/kg | 0.8 h | CC(C)n1cnnc1-c1cccc(NC(=O)c2cc3c(cc2F)CCCC(=O)N3C)c1
23 | 1.84 h | 0.42 µg/mL | 2.19 L/kg | 0.21 L/h/kg | 0.372 L/h/kg | 0.32 µg·h/mL | 16% | 0.252 µg·h/mL | 0.109 µg/mL | 6.69 h | 8.31 h | 3.12 L/h/kg | 0.72 h | CC(C)n1cnnc1-c1cccc(NC(=O)c2cc3c(cc2F)CCCC(=O)N3)c1
24 |  | 3.03 µg/mL | 0.27 L/kg |  |  |  | 129% | 38.3 µg·h/mL | 6.03 µg/mL |  |  |  |  | Cc1cc(F)c(C(=O)Nc2cccc(-c3nncn3C(C)C)n2)cc1-n1cnc(C2CC2)c1 [SELONSERTIB]
